# Earlier results as cited in PMC13363528, “Structure–Activity Relationships of Pyrrolyl-Containing Diketo Acid and Non-Diketo Acid Derivatives as Inhibitors of SARS-CoV-2 nsp13-Associated Activities” (Molecules, 2026).
# Target: SARS-CoV-2 nsp13 (Severe acute respiratory syndrome coronavirus 2, UniProt P0DTD1)
# Conditions: without BSA/TCEP; read-out: IC50 Unwinding
smiles,measurement,value
O=c1c(O)c(-c2ccc(O)cc2)oc2cc(O)cc(O)c12 [Kaempferol],IC50,760 ± 160 nM
